Test results published in the NIST ThermoML archive (doi:10.1021/acs.jced.5b00303).
Numbers after ± are expanded uncertainties.

Conditions: Pendant drop shape

CCn1cc[n+](C)c1.N#C[C-](C#N)C#N [1-ethyl-3-methyl-1H-imidazolium tricyanomethanide]
Conditions | surface tension liquid-gas [mN/m]
283.18 K | 51.1 ± 1.2
293.25 K | 50.4 ± 1.2
303.24 K | 49.39 ± 1.2
313.1 K | 48.62 ± 1.2
323.08 K | 47.83 ± 1.1
333.17 K | 47.19 ± 1.1
343.09 K | 46.55 ± 1.1
353.36 K | 44.68 ± 1.1

CCCCCC[n+]1ccn(C)c1.N#C[C-](C#N)C#N [3-hexyl-1-methylimidazolium tricyanomethanide]
Conditions | surface tension liquid-gas [mN/m]
283.23 K | 44.44 ± 1.1
293.35 K | 43.55 ± 1
303.33 K | 42.88 ± 1
313.26 K | 42.09 ± 1
323.25 K | 41.49 ± 1
333.18 K | 40.8 ± 0.98
343.11 K | 39.91 ± 0.96
353.53 K | 39.07 ± 0.94

CCCCCCCCn1cc[n+](C)c1.N#C[B-](C#N)(C#N)C#N [1-methyl-3-octylimidazolium tetracyanoborate]
Conditions | surface tension liquid-gas [mN/m]
283.23 K | 38.64 ± 0.87
293.32 K | 38.01 ± 0.85
303.3 K | 36.81 ± 0.83
313.27 K | 36.18 ± 0.81
323.23 K | 35.19 ± 0.79
333.18 K | 34.15 ± 0.77
343.21 K | 33.44 ± 0.75
353.28 K | 32.41 ± 0.73

CCCCCCn1cc[n+](C)c1.N#C[B-](C#N)(C#N)C#N [1-hexyl-3-methylimidazolium tetracyanoborate]
Conditions | surface tension liquid-gas [mN/m]
283.27 K | 41.99 ± 0.94
293.29 K | 41.32 ± 0.93
303.27 K | 40.4 ± 0.91
313.29 K | 39.39 ± 0.88
323.26 K | 38.6 ± 0.87
333.2 K | 37.61 ± 0.85
343.18 K | 37 ± 0.83
353.25 K | 35.86 ± 0.81

CCCCCCCCn1cc[n+](C)c1.N#CC(=C=[N-])C#N [1-methyl-3-octylimidazolium tricyanomethanide]
Conditions | surface tension liquid-gas [mN/m]
283.28 K | 40.07 ± 0.96
293.21 K | 39.03 ± 0.94
303.32 K | 38.38 ± 0.92
313.21 K | 37.65 ± 0.91
323.12 K | 36.89 ± 0.89
333.1 K | 36.09 ± 0.87
343.16 K | 35.31 ± 0.85
353.03 K | 34.89 ± 0.84

CCn1cc[n+](C)c1.N#C[B-](C#N)(C#N)C#N [1-ethyl-3-methylimidazolium tetracyanoborate]
Conditions | surface tension liquid-gas [mN/m]
283.1 K | 49.66 ± 1.1
293.26 K | 48.72 ± 1.1
303.35 K | 47.57 ± 1.1
313.29 K | 46.45 ± 1
323.2 K | 45.67 ± 1
333.09 K | 44.87 ± 1
343.12 K | 44.04 ± 0.99
353.45 K | 43.4 ± 0.97

Cn1cc[n+](C)c1.N#C[B-](C#N)(C#N)C#N [1,3-dimethylimidazolium tetracyanoborate]
Conditions | surface tension liquid-gas [mN/m]
283.19 K | 35.44 ± 0.8
293.24 K | 34.74 ± 0.78
303.28 K | 33.67 ± 0.76
313.26 K | 33.07 ± 0.75
323.17 K | 32.05 ± 0.72
333.17 K | 31.37 ± 0.71
343.13 K | 30.6 ± 0.69
353.24 K | 29.98 ± 0.68

CCCCn1cc[n+](C)c1.N#C[B-](C#N)(C#N)C#N [1-butyl-3-methyl-1H-imidazolium tetracyanoborate]
Conditions | surface tension liquid-gas [mN/m]
283.23 K | 45.23 ± 1
293.23 K | 44.64 ± 1
303.3 K | 43.65 ± 0.98
313.24 K | 42.62 ± 0.95
323.24 K | 41.71 ± 0.93
333.2 K | 40.81 ± 0.92
343.22 K | 39.87 ± 0.89
353.3 K | 39.08 ± 0.88
